# Data published in patent US9012483B2, “Use of L-Histidine and derivatives thereof” (priority 2011, dated 2015).
# “Also recorded” adds a separate entry of the source. Like-named read-outs stand apart in the source and are kept apart here. Marks after values point to notes of the source that are not given here.
# Key:
# [1] = Pharmacokinetics of histidine in plasma after oral administration; assay type: in vivo, CD(SD)IGS BR rat; details: for Tmax / AUC(0-inf) / Cmax: male, CD(SD)IGS BR; for Tmax / AUC(0-inf) / Cmax / t1/2λz: rat plasma; for total plasma clearance: rat
# Description: Aliquots of L-Histidine dihydrochloride powder, accurately weighted, were transferred into 5 and 10 mL volumetric flasks. MilliQ-water was used to dissolve the powder. Standard solution was prepared to obtain CAL samples and CQ samples. The range of the stock standard solution was from 3.46 to 343 μg/mL. All standard solutions were stored at +4° C., in the dark: under these conditions they were considered stable for up to one month.
# CAL samples were prepared by using the standard solution at the concentration of 3.46, 34.3, 68.6, 173 and 343 μg/mL and QC samples by using the standard solution at the concentration of 14.3, 67.1, 143 and 268 μg/mL.
# CAL and QC samples were prepared by mixing 10 μL of Histidine standard solution with […] of blank rat plasma.
# (§1) To these samples 20 μL of trichloroacetic acid (16% w/v) were added to precipitate the plasma proteins. The tubes were vortexed for few seconds and centrifuged for 10 min at 2000 g at room temperature; to 90 μL of the clear supernatant 45 μL of a soaked solution of Sodium carbonate (200 mM) and 90 μL of derivatizing solution (4 mg/mL of Dansyl chloride) were added. The tubes were vortexed for few seconds and incubated under stirring for 30 minutes at 60° C. Five microliters of Methylamine Hydrochloride were added and after cooling for 15 minutes, ten microliters of the sample were injected into the HPLC equipment.
# as §1, with “Test plasma samples (S) were prepared by adding 10 μL of Milli-Q water to 90 μL of undiluted plasma or 90 μL of plasma suitably diluted with blank plasma (if sample volume was not enough). To” for “To”, “equipment. All plasma samples collected during the study were stored at −20° C. until analysis.” for “equipment.”
# • Species and strain: CD(SD)IGS BR rat • sex of animals: males • Weight and age at treatment: 306-376 g (10-14 weeks old) • Supplier: Charles River Laboratories, Calco (LC), Italy
# (§2) Rats were used to determine the pharmacokinetic parameters after administration of three different histidine doses (100, 500 and 1000 mg/kg, three animals for each group).
# Plasma concentrations of Histidine as a function of time after injection C(t), were analyzed by non-parametric methods using the computer program WIN-NONLIN 4.0.1. For the tested doses, a non-compartmental analysis was performed using the average plasma concentrations from 3 animals for each time point (except when indicated). For Cmax (peak plasma concentration) and the corresponding tmax ([…]) the observed values were reported. The terminal phase elimination rate constant (λz) was estimated by log-linear regression of those data points visually assessed to be in the terminal phase of the profile. At least three terminal plasma concentrations were used for estimating λz. The terminal elimination half life (t ½ λz, time required for a drug to decline to half of its original plasma value) was calculated as t ½ λz=In 2/λz. Area under the plasma concentration-time curve to the last observable plasma concentration (AUC(0 to t)) was calculated from observed data using the logarithmic trapezoidal method. Total area under the plasma concentration-time curve from zero to infinity (AUC(0 to ∞)) was estimated by AUC(0 to ∞) =AUC(0 to t) +ct/λz, where ct is the predicted concentration at the last quantified time point. AUC defines extent of drug exposure.
# [2] = Clinical signs in the pharmacokinetic study after oral histidine; assay type: in vivo, CD(SD)IGS BR rat; details: rat, up to 1000 mg/kg
# Description: as §2
# [3] = test system: Gd(DTPA-BMA) and Gd(DTPA) complexes with Cu(II); experiment: Kinetics of transmetallation of Gd(DTPA) and Gd(DTPA-BMA) with Cu(II) in the presence of citrate and histidine (spectrophotometry, 300 nm); assay type: physicochemical; details: [GdL]=2.0 mM, [Cu]=0.1 mM, [cit]=2.0 mM, [His]=0.2-0.8 mM, pH 7.0, 25° C., 0.15 M NaCl
# Description: In order to have some clues on the kinetics of a possible transmetallation reactions in the presence of citrate (an important counter-ion present in plasma and found to be highly interactive with Gd^3+) and increasing amounts of histidine, the rates of the following reactions have been studied: GdL+Cu^2++His+cit⇄CuL+Gd(cit)+His (1)
# In the experiment, the concentration used for Gd^3+ complex (GdL), citrate and Cu^2+ were: 2.0, 2.0 and 0.1 mM, respectively, while the concentration of His was varied (0.2, 0.4, 0.6 and 0.8 mM).
# The progress of the exchange reactions (1) has been studied by spectrophotometry (Cary 1E spectrophotometer) at 300 nm, with the use of 1.0 cm quartz cell at 25° C. in 0.15 M NaCl in the pH range 6-8. […]
# Gd(DTPA-BMA) = experiment: Dissociation of Gd(DTPA-BMA) in artificial plasma, relaxivity at 20 MHz; assay type: physicochemical; details: pH 7.5, 37° C.
# [4] = for changes in Gd^3+ content in liver and spleen: versus group 1; for % ID in femour, mean / Gadolinium content in femour, mean: p < 0.01 vs group 1; for Gadolinium content in skin, mean: p < 0.05 vs group 1
# Description: L-Histidine was orally administered by gavage, while Omniscan® was intravenously administered.
# On the day of scheduled sacrifice, animals were anesthetized with an inhalation agent, sevoflurane, at an respiratory concentration of 3% in induction and 1-2% in maintenance and bled after collection of blood from the abdominal aorta. After exsanguination, liver, spleen, femur and skin of all animals were excised, weighed and prepared for ICP-MS determination of gadolinium content. Sample digestion (spleen and femur) was performed by a microwave system (MARS-5 CEM Corporation).
# Liver and skin samples were freeze-dried with a lyophilizer (Alpha-1-2LD Plus, CHRIST) after being frozen at −80° C. for at least 1 h. After drying, dehydrated livers were weighed and then ground in a mortar.
# Gadolinium content in organs was reported as μg of Gd.
# [5] = rat, oral histidine 4.38 mmol/kg and iv Omniscan 1 mmol/kg
# [6] = cited from earlier work
# [7] = cited from earlier work; remark: listed apart in the source
# Cu(His)2 = experiment: Exchange reaction between Gd(DTPA-BMA) and Cu(His)2 without and with citrate (UV spectrum); assay type: physicochemical; details: Cu(His)2 0.2 mM, Gd(DTPA-BMA) 2.0 mM, pH 6.5, 25° C., 0.15 M NaCl
# Description: FIG. 3. The UV spectrum of Cu(His)2 in the presence of Gd(DTPA-BMA) excess (Panel A) and in the presence of citrate and Gd(DTPA-BMA) excess (Panel B). (Cu(His)2=0.2 mM, Gd(DTPA-BMA)=2.0 mM) (A). (Cu(His)2=0.2 mM, Gd(DTPA-BMA)=2.0 mM, Citrate=2.0 mM) (B). pH=6.5, 25° C., 0.15 M NaCl.
# It is possible to conclude that in body fluids transmetallation reactions may take place between the DTPA-derivative Gd^3+ complexes and endogenous metal ions, like Cu^2+ and Zn^2+. The possibility of the transmetallation reactions can be predicted on the basis of the stability constants of complexes formed between the most important endogenous metals and ligands. The stability constants have been determined for the Gd^3+, Cu^2+ and Zn^2+ complexes of the DTPA, DTPA-BMA, citrate and histidine ligands. […] The species distribution calculations have been experimentally verified by following the exchange reactions between Gd(DTPA-BMA) and Cu(His)2 in the absence and presence of citrate.
# [8] = group 2, histidine pretreatment at 30 min
# [9] = group 2: oral histidine 4.38 mmol/kg 30 min before Omniscan 1 mmol/kg iv, 24 h
# [10] = group 2: oral histidine 4.38 mmol/kg 30 min before Omniscan 1 mmol/kg iv, 24 h, listed as Histidine
# [11] = group 2: oral histidine 4.38 mmol/kg 30 min before Omniscan 1 mmol/kg iv, 24 h, listed as histidine
# [12] = histidine 30 min before Omniscan versus no histidine pretreatment
structure (smiles),measurement,setting,value
N[C@@H](Cc1c[nH]cn1)C(=O)O [L-Histidine],Tmax,[1]; 100 mg/kg,30 min
same,Tmax,[1]; 1000 mg/kg,30 min
same,AUC(0-inf),[1]; Histidine 100 mg/kg,550 µg·h/mL
same,Cmax,[1]; Histidine 100 mg/kg (0.438 mmol/kg),9000 ng/mL
same,AUC(0-inf),[1]; Histidine 500 mg/kg,630 µg·h/mL
same,Tmax,[1]; Histidine 500 mg/kg,60 min
same,Cmax,[1]; Histidine 500 mg/kg (2.192 mmol/kg),20900 ng/mL
same,AUC(0-inf),[1]; Histidine 1000 mg/kg,390 µg·h/mL
same,Cmax,[1]; Histidine 1000 mg/kg (4.38 mmol/kg),36000 ng/mL
same,t1/2λz,[1]; Histidine 100 mg/kg (Table A),51 h
same,t1/2λz,[1]; Histidine 500 mg/kg (Table A),47 h
same,t1/2λz,[1]; Histidine 1000 mg/kg (Table A),13 h
same,total plasma clearance,[1]; 100 mg/kg,180 mL/h/kg
same,total plasma clearance,[1]; 500 mg/kg,790 mL/h/kg
same,total plasma clearance,[1]; 1000 mg/kg,2562 mL/h/kg
same,clinical signs,[2],No clinical signs were observed
same,"extent (conversion) of the transmetallation reactions, CuL formed",[3]; listed as Histidine,decrease
same,rates of the transmetallation reactions,[3]; listed as Histidine,decrease
same,"extent (conversion) of the transmetallation reactions, CuL formed",[3]; listed as histidine,significantly decrease; also recorded: decrease with increasing concentration of histidine
same,rates of the transmetallation reactions,[3]; listed as histidine,significantly decrease; also recorded: decrease with increasing concentration of histidine
same,effect on the increase of relaxivity / extent of dissociation of Gd(DTPA-BMA),Gd(DTPA-BMA); histidine 0.5 mM and 1.0 mM added to artificial plasma with 1.0 mM Gd(DTPA-BMA),concentration dependent drop in the increase of the relaxivity values; also recorded: significantly decreases
same,"% ID in liver, spleen and skin versus group 1",[4]; [8],not significantly different
same,changes in Gd^3+ content in liver and spleen,[4]; [8],no significant changes
same,"% ID in liver, mean",[4]; [9],0.1094 % ID
same,"% ID in skin, mean",[4]; [9],0.0067 % ID
same,"% ID in spleen, mean",[4]; [9],0.00478 % ID
same,"Gadolinium content in liver, mean",[4]; [9],20.7 nmol/g of tissue
same,"Gadolinium content in spleen, mean",[4]; [9],20.0 nmol/g of tissue
same,"% ID in femour, mean",[4]; [10],0.00166** % ID
same,"Gadolinium content in femour, mean",[4]; [10],6.90** nmol/g of tissue
same,"% ID in femour, mean",[4]; [11],0.00166 % ID
same,"Gadolinium content in femour, mean",[4]; [11],6.90 nmol/g of tissue
same,"Gadolinium content in skin, mean",[4]; [10],11.25* nmol/g of tissue
same,"Gadolinium content in skin, mean",[4]; [11],11.25 nmol/g of tissue
same,changes in Gd^3+ content in liver and spleen,"[4]; group 3, histidine pretreatment at 1 h",no significant changes
same,decrease in Gd^3+ content in femur (nmol/g tissue),[4]; [12],about 40%
same,decrease of % ID in femour,[4]; [12],about 40%
same,effect on Gd^3+ accumulation,[4]; histidine treatment 60 min before Omniscan administration,"didn't show, in this model, any effect"
same,mortality and clinical signs,[5],No mortalities nor changes in clinical signs
same,time to peak levels after oral administration,"[6]; L-Histidine in the salt form (HCl), oral route",30 to 45 min
same,AUC(0 to ∞),"[6]; healthy volunteers, single oral administration of Histidine at 100 mg/kg",0.477 mg·h/mL
same,"serum parameters including protein bound zinc, serum and urinary zinc levels","[7]; human subjects, L-histidine up to 4 g/day, 15-days treatment",not shown to be grossly altered
same,adverse effects,"[7]; humans, oral, up to 4-6 g/day for several days",neither important adverse effects nor minor inconveniences
"CNC(=O)CN(CCN(CCN(CC(=O)[O-])CC(=O)NC)CC(=O)[O-])CC(=O)[O-].[Gd+3] [Omniscan ®, Gadodiamide]",relaxivity values as a function of time (dissociation of the complex),"Gd(DTPA-BMA); 1.0 mM Gd(DTPA-BMA) in artificial plasma, no added histidine",relaxivity values increase as a function of time
same,changes of the UV spectrum of Cu(His)2 (transmetallation),Cu(His)2; citrate 2.0 mM,the transmetallation reaction takes place
same,changes of the UV spectrum of Cu(His)2 (transmetallation),Cu(His)2; no citrate,no changes
